Data published in patent US20110020460A1, “GPR 119 MODULATORS” (Pfizer Inc., priority 2009, published 2011).
“And” between values parts separate entries of the source, which are not always exact repeats. Equal values may be shown once.

Columns and labels:
human GPR119 [1] = target: T1, human GPR119 (Homo sapiens, UniProt Q8TDV5); assay: beta-lactamase reporter functional assay (hGPR119 HEK293-CRE beta-lactamase cells); format: cell-based; details: one value per run; for EC50: hGPR119 HEK293-CRE beta-lactamase cells, read-out: Human B-lactamase Functional EC50; for Intrinsic Activity* (B-lactamase) / Emax: percent of maximal activity relative to standard GPR119 agonist (WO2005121121) at 10 microM; for Emax: read-out: Intrinsic Activity* (B-lactamase)
T1 construct: host or cells: HEK293-CRE-beta-lactamase
T1 sequence (Q8TDV5 1-335): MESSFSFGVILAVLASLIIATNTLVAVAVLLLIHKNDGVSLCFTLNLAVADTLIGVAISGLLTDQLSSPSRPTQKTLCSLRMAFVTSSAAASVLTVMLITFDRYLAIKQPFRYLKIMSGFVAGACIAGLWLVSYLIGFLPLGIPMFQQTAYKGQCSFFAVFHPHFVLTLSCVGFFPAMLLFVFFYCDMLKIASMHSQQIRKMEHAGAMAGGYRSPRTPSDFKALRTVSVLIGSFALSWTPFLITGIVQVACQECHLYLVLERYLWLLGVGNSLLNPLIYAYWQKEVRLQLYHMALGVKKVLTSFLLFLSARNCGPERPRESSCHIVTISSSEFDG
Description: The assay for GPR119 agonists utilizes a cell-based (hGPR119 HEK293-CRE beta-lactamase) reporter construct where agonist activation of human GPR119 is coupled to beta-lactamase production via a cyclic AMP response element (CRE). GPR119 activity is then measured utilizing a FRET-enabled beta-lactamase substrate, CCF4-AM (Live Blazer FRET-B/G Loading kit, Invitrogen cat #K1027). […] After 4 hours the plating medium was removed and replaced with 40 microL of assay medium (Assay medium is plating medium without potassium clavulanate and HIFBS). Varying concentrations of each compound to be tested was then added in a volume of 10 microL (final DMSO≦0.5%) and the cells were incubated for 16 hours at 37 degrees Celsius in a humidified environment containing 5% carbon dioxide. Plates were removed from the incubator and allowed to equilibrate to room temperature for approximately 15 minutes. 10 microL of 6×CCF4/AM working dye solution (prepared according to instructions in the Live Blazer FRET-B/G Loading kit, Invitrogen cat #K1027) was added per well and incubated at room temperature for 2 hours in the dark. Fluorescence was measured on an EnVision fluorimetric plate reader, excitation 405 nm, emission 460 nm/535 nm. EC50 determinations were made from agonist-response curves analyzed with a curve fitting program using a 4-parameter logistic dose-response equation.

human GPR119 [2] = target: T2, human GPR119 (Homo sapiens, UniProt Q8TDV5); assay: beta-arrestin functional assay (DiscoverX PathHunter U2OS hGPR119 beta-arrestin cells); format: cell-based; details: for EC50: read-out: Human B-arrestin Functional EC50; for Emax: U2OS, read-out: Intrinsic Activity* (B-arrestin)
T2 construct: host or cells: U2OS
Description: GPR119 agonist activity was also determined with a cell-based assay utilizing DiscoverX PathHunter β-arrestin cell assay technology and their U2OS hGPR119 β-arrestin cell line (DiscoverX Cat #93-0356C3). In this assay, agonist activation is determined by measuring agonist-induced interaction of […] with activated GPR119. A small, 42 amino acid enzyme fragment, called ProLink was appended to the C-terminus of GPR119. Arrestin was fused to the larger enzyme fragment, termed EA (Enzyme Acceptor). Activation of GPR119 stimulates binding of arrestin and forces the complementation of the two enzyme fragments, resulting in formation of a functional β-galactosidase enzyme capable of hydrolyzing substrate and generating a chemiluminescent signal.
EC50 determinations were made from an agonist-response curves analyzed with a curve fitting program using a 4-parameter logistic dose response equation.
T2 sequence (P32121 whole entry partner, one chain of several): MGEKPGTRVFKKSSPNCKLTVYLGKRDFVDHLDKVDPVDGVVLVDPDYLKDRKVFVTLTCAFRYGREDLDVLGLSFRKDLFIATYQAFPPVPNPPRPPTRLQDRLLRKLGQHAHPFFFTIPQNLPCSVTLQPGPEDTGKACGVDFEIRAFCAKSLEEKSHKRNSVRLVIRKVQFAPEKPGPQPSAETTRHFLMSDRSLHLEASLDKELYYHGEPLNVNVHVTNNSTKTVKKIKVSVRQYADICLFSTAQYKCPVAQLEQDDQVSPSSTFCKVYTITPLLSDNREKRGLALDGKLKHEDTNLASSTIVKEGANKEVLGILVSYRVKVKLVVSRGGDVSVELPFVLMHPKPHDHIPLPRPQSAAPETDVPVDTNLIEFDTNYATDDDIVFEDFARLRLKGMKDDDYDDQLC

human GPR119 [3] = target: T1, human GPR119; assay: cAMP HTRF functional assay (hGPR119 HEK-CRE beta-lactamase cells); format: cell-based; details: one value per run; for Intrinsic Activity* (cAMP) / Emax: percent of maximal activity relative to standard GPR119 agonist (WO2005121121) at 10 μM; for Emax: read-out: Intrinsic Activity* (cAMP); for EC50: hGPR119 HEK-CRE beta-lactamase cells, HTRF cAMP
Description: GPR119 agonist activity was also determined with a cell-based assay utilizing an HTRF (Homogeneous Time-Resolved Fluorescence) cAMP detection kit (cAMP dynamic 2 Assay Kit; Cis Bio cat #62AM4PEC) that measures cAMP levels in the cell. The method is a competitive immunoassay between native cAMP produced by the cells and the cAMP labeled with the dye d2. The tracer binding is visualized by a Mab anti-cAMP labeled with Cryptate. The specific signal (i.e. energy transfer) is inversely proportional to the concentration of cAMP in either standard or sample.
Following 30 minutes incubation at room temperature, 5 microL of labeled d2 cAMP and 5 microL of anti-cAMP antibody (both diluted 1:20 in cell lysis buffer; as described in the manufacturers assay protocol) were added to each well of the assay plate. […] Raw data were converted to nM cAMP by interpolation from a cAMP standard curve (as described in the manufacturer's assay protocol) and EC50 determinations were made from an agonist-response curves analyzed with a curve fitting program using a 4-parameter logistic dose response equation.

human GPR119 [4] = target: T1, human GPR119; assay: GPR119 radioligand binding assay ([3H]-Compound A or [3H]-Compound B, HEK 293FT membranes); details: Ki from IC50 by Cheng-Prusoff; one value per run; read-out: Human Binding Ki
Description: Cells were harvested via centrifugation (3,000×g, 10 minutes), washed once on DPBS (minus Ca++/Mg++), resuspended in 0.25M sucrose, 25 mM HEPES, 0.5 mM EDTA, pH 7.4 and frozen at −80 degrees Celsius.
The frozen cells were thawed on ice and centrifuged at 700×g (1400 rpm) for 10 minutes at 4 degrees Celsius. The cell pellet was resuspended in 20 mL phosphate-buffered saline, and centrifuged at 1400 rpm for 10 minutes. […] Cells were then lysed with 15 gentle strokes of a tight-fitting glass Dounce homogenizer. The homogenate was centrifuged at 1000×g (2200 rpm) for 10 minutes at 4 degrees Celsius. The supernatant was transferred into fresh centrifuge tubes on ice. The cell pellet was resuspended in homogenization buffer, and centrifuged again at 1000×g (2200 rpm) for 10 minutes at 4 degrees Celsius after which the supernatant was removed and the pellet resuspended in homogenization buffer. […] The solution was then centrifuged at 25,000×g (15000 rpm) for 20 minutes at 4 degrees Celsius, the supernatant was discarded, and the pellet was resuspended in fresh homogenization buffer (minus Benzonase and MgCl2). After repeating the 25,000×g centrifugation step, the final membrane pellet was resuspended in homogenization buffer and frozen at −80 degrees Celsius.
2 microL of each dilution was added to appropriate wells of a 96-well plate (each concentration in triplicate).
Membranes expressing GPR119 were thawed and diluted to a final concentration of 20 μg/100 microL per well in Binding Buffer, and 100 microL of diluted membranes were added to each well of 96-well plate.
The plate was incubated for 60 minutes w/shaking at room temperature (approximately 25 degrees Celsius). […] Filters were then washed six times using washing buffer (50 mM Tris-HCl, pH 7.5 kept at 4 degrees Celsius). The filter plates were then air-dyed at room temperature overnight.
IC50 determinations were made from competition curves, analyzed with a proprietary curve fitting program (SIGHTS) and a 4-parameter logistic dose response equation. Ki values were calculated from IC50 values, using the Cheng-Prusoff equation.

[5] = U2OS hGPR119 beta-arrestin cells, one value per run
[6] = percent of maximal activity relative to standard GPR119 agonist (WO2005121121) at 10 microM, one value per run
[7] = **curve was extrapolated to 100% to calculate an EC50

Structure (SMILES)	EC50 (human GPR119 [1])	Intrinsic Activity* (B-lactamase) (human GPR119 [1])	Emax (human GPR119 [1]) [%]	EC50 (human GPR119 [2]; [5]) [nM]	Emax (human GPR119 [2]; [6]) [%]	Intrinsic Activity* (cAMP) (human GPR119 [3])	Emax (human GPR119 [3]) [%]	Ki (human GPR119 [4])	EC50 (human GPR119 [3])	EC50 (human GPR119 [2]; [7]) [nM]	Emax (human GPR119 [2]; [7]) [%]
CC(C)OC(=O)N1CCC(n2ncc(COc3ccc(-n4cnnn4)cc3F)c2C#N)CC1 [Example 3, Isopropyl 4-(5-cyano-4-{[2-fluoro-4-(1H-tetrazol-1-yl)phenoxy]-methyl}-1H-pyrazol-1-yl)piperidine-1-carboxylate]	8 nM and 11 nM and 6 nM	105% and 96%	98	4	111	91% and 74% and 79% and 84%	86	5 nM and 10 nM and 37 nM			
CC(C)OC(=O)N1CCC(n2ncc(COc3ccc(C#N)cc3F)c2C#N)CC1 [Example 8, Isopropyl 4-{5-cyano-4-[(4-cyano-2-fluorophenoxy)methyl]-1H-pyrazol-1-yl}piperidine-1-carboxylate]	20 nM and 39 nM and 64 nM	102% and 94%	100	16	80	75% and 74%	89		9 nM and 6 nM and 7 nM		
CC1(OC(=O)N2CCC(n3ncc(COc4cc(F)ccc4F)c3C#N)CC2)CC1 [Example 13, 1-Methylcyclopropyl 4-{5-cyano-4-[(2,5-difluorophenoxy)methyl]-1H-pyrazol-1-yl}piperidine-1-carboxylate]				217	119	87%	95	149 nM	180 nM and 112 nM		
CC1(OC(=O)N2CCC(n3ncc(COc4cccc(F)c4F)c3C#N)CC2)CC1 [Example 14, 1-Methylcyclopropyl 4-{5-cyano-4-[(2,3-difluorophenoxy)methyl]-1H-pyrazol-1-yl}piperidine-1-carboxylate]				495	109	78%	74	723 nM	436 nM and 494 nM		
CC1(OC(=O)N2CCC(n3ncc(COc4ccc(C(N)=O)cc4F)c3C#N)CC2)CC1 [Example 15, 1-Methylcyclopropyl 4-{4-[(4-carbamoyl-2-fluorophenoxy)methyl]-5-cyano-1H-pyrazol-1-yl}piperidine-1-carboxylate]				63	104	102% and 112% and 131%		268 nM and 160 nM	198 nM and 106 nM and 129 nM		
CC1(OC(=O)N2CCC(n3ncc(COc4ccc(C(N)=O)cc4)c3C#N)CC2)CC1 [Example 16, 1-Methylcyclopropyl 4-{4-[(4-carbamoylphenoxy)methyl]-5-cyano-1H-pyrazol-1-yl}piperidine-1-carboxylate]				472		102% and 119%	105		204 nM and 165 nM and 316 nM	420	100
CC1(OC(=O)N2CCC(n3ncc(COc4ccc(C#N)cc4)c3C#N)CC2)CC1 [Example 17, 1-Methylcyclopropyl 4-(5-cyano-4-((4-cyanophenoxy)methyl)-1H-pyrazol-1-yl)piperidine-1-carboxylate]				161	67	91%	95		39 nM and 26 nM		

Other lines, results leading:

EC50 (human GPR119 [1])	Intrinsic Activity* (B-lactamase) (human GPR119 [1])	Emax (human GPR119 [1]) [%]	EC50 (human GPR119 [2]; [5]) [nM]	Emax (human GPR119 [2]; [6]) [%]	Intrinsic Activity* (cAMP) (human GPR119 [3])	Emax (human GPR119 [3]) [%]	Ki (human GPR119 [4])	EC50 (human GPR119 [3])	EC50 (human GPR119 [2]; [7]) [nM]	Emax (human GPR119 [2]; [7]) [%]	Structure (SMILES)
			155	92	109%	107	462 nM	56 nM and 52 nM			CC1(OC(=O)N2CCC(n3ncc(COc4c(F)ccc(F)c4F)c3C#N)CC2)CC1 [Example 31, 1-Methylcyclopropyl 4-{5-cyano-4-[(2,3,6-trifluorophenoxy)methyl]-1H-pyrazol-1-yl}piperidine-1-carboxylate]
					92%	85		244 nM and 274 nM	1330	100	CC(C)OC(=O)N1CCC(n2ncc(COc3ccc(-c4nccn4C)cc3F)c2C#N)CC1 [Example 33, Isopropyl 4-(5-cyano-4-{[2-fluoro-4-(1-methyl-1H-imidazol-2-yl)phenoxy]methyl}-1H-pyrazol-1-yl)piperidine-1-carboxylate]
328 nM and 805 nM	105%	114				56	416 nM	1160 nM			Cc1nc(S(C)(=O)=O)ccc1NCc1cnn(C2CCN(C(=O)OC(C)C)CC2)c1C#N [Example 37, Isopropyl 4-[5-cyano-4-({[2-methyl-6-(methylsulfonyl)pyridin-3-yl]amino}methyl)-1H-pyrazol-1-yl]piperidine-1-carboxylate]
